The text below walks through data of patent US7109243B2 (IRM LLC, priority 2003, dated 2006).

In one assay the target is Cathepsin S (Homo sapiens, UniProt P25774). Kind of assay: Cathepsin S inhibition assay (fluorogenic peptide substrate). The format is biochemical. An outline of the steps:
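Ki values come from nonlinear fitting of inhibited hydrolysis rates, taking free and total inhibitor concentrations as equal. Rates measured as rising fluorescence at 380/450 nm after reaction start with 50 μM final acetyl-HPVK-aminocarbamoylcoumarin.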

Another assay addresses T1, Cathepsin K (Homo sapiens, UniProt P43235).
T1 sequence (P43235 115-329): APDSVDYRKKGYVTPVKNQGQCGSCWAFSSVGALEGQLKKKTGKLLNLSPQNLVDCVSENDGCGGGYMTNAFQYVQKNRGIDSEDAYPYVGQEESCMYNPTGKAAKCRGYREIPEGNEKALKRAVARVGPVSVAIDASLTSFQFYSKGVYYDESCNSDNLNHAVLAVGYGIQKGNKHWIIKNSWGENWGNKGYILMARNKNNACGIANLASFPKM
In words: Cathepsin K inhibition assay (fluorogenic peptide substrate); selectivity ratio vs cathepsin S. The format is biochemical. The conditions noted are these: for Ki: read-out: Ki (CatK). An outline of the steps:
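Inhibition constants for competitive inhibitors come from apparent values fitted to enzyme progress curves. Substrate, acetyl-Lys-His-Pro-Lys-aminocarbamoylcoumarin (40 μM final), starts the reaction; fluorescence rise read at 380 nm excitation, 450 nm emission. Selectivity ratio: other cathepsin constant over cathepsin S constant.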

Where [1] appears, read: Table II, compounds of Formula I, read-out: Ki Cat. S.
The mark [2] stands for this setting: ratio of cathepsin K inhibition constant to cathepsin S inhibition constant, Table II.
Where [3] appears, read: comparison compounds in the art, read-out: Ki (CatS).
The mark [4] stands for this setting: comparison compounds in the art, ratio Ki CatK / Ki CatS.
Setting [5] is: comparison compounds in the art.

Read-outs that look alike come from different tables or passages of the source.

Chain of Cathepsin S (P25774 115-331, species assumed): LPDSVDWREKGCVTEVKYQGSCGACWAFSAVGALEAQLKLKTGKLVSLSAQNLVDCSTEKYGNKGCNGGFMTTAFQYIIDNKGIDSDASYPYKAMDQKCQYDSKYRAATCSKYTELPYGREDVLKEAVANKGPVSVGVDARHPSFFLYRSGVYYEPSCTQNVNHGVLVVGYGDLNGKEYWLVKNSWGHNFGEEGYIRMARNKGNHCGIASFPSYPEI

Turning to `N#Cc1ccc(C(=O)N[C@@H](CC2CCCCC2)C(=O)NCCNc2ccc(F)cc2)cc1` [Compound 316, 4-Cyano-N-(S)-{2-cyclohexyl-1-[2-(4-fluoro-phenylamino)-ethylcarbamoyl]-ethyl}-benzamide], the inhibitory constant (Ki) on Cathepsin S (setting [1]) is < 100 nM. Besides, at Cathepsin K (setting [2]), the “Selectivity for Cat. S over Cat. K” value is “++ (++, >100)”.

For `O=C(NCCNc1ccc(F)cc1)[C@H](CC1CCCCC1)NC(=O)[C@H](O)c1ccccc1` [Compound 317, 3-Cyclohexyl-N-[2-(4-fluoro-phenylamino)-ethyl]-2-(S)-(2-(R)-hydroxy-2-phenyl-acetylamino)-propionamide], the Ki on Cathepsin S (setting [1]) is < 100 nM. Moreover, the “Selectivity for Cat. S over Cat. K” value on Cathepsin K (setting [2]) was “++ (++, >100)”.

As for `CC[C@@H](C(=O)N[C@@H](CC1CCCCC1)C(=O)NCCNc1ccc(F)cc1)c1ccccc1` [Compound 318, N-{2-cyclohexyl-1-(S)-[2-(4-fluoro-phenylamino)-ethylcarbamoyl]-ethyl}-2-(R)-phenyl-butyramide], the inhibition constant (Ki) on Cathepsin S (setting [1]) is < 100 nM. The “Selectivity for Cat. S over Cat. K” value at Cathepsin K (setting [2]) is given as “+ (+, >10)”.

As for `O=C(NCCNc1ccc(F)cc1)[C@H](CC1CCCCC1)NC(=O)C1(c2ccccc2)CC1` [Compound 319, 1-Phenyl-cyclopropanecarboxylic acid (S)-{2-cyclohexyl-1-[2-(4-fluoro-phenylamino)-ethylcarbamoyl]-ethyl}-amide], the Ki on Cathepsin S (setting [1]) was < 100 nM. In addition, the “Selectivity for Cat. S over Cat. K” value on Cathepsin K (setting [2]) is recorded as “++ (++, >100)”.

`N#Cc1cccc(C(=O)N[C@@H](CC2CCCCC2)C(=O)NCCNc2ccc(F)cc2)c1` [Compound 321, 3-Cyano-N-(S)-{2-cyclohexyl-1-[2-(4-fluoro-phenylamino)-ethylcarbamoyl]-ethyl}-benzamide]: the inhibitory constant (Ki) at Cathepsin S (setting [1]) is < 1000 nM. At Cathepsin K (setting [2]), the “Selectivity for Cat. S over Cat. K” value was “++ (++, >100)”.

Consider `O=C(N[C@@H](CC1CCCCC1)C(=O)NCCNc1ccc(F)cc1)c1ccc(-c2ccc(F)cc2)o1` [Compound 322, 5-(4-Fluoro-phenyl)-furan-2-carboxylic acid (S)-{2-cyclohexyl-1-[2-(4-fluoro-phenylamino)-ethylcarbamoyl]-ethyl}-amide], for which the Ki on Cathepsin S (setting [1]) is < 100 nM. For the same molecule, the “Selectivity for Cat. S over Cat. K” value at Cathepsin K (setting [2]) is “++ (++, >100)”.

Turning to `O=C(Cc1cccc(C(F)(F)F)c1)N[C@@H](CC1CCCCC1)C(=O)NCCNc1ccc(F)cc1` [Compound 323, 3-Cyclohexyl-N-[2-(4-fluoro-phenylamino)-ethyl]-2-(S)-[2-(3-trifluoromethyl-phenyl)-acetylamino]-propionamide], at Cathepsin S (setting [1]), the Ki was < 100 nM. In addition, the “Selectivity for Cat. S over Cat. K” value on Cathepsin K (setting [2]) is “++ (++, >100)”.

Consider `N#Cc1cccc(C(=O)N[C@@H](CC2CCCCC2)C(=O)NCCNc2ccc(F)cc2)c1` [Compound 324, 3-Cyano-N-(S)-{2-cyclohexyl-1-[2-(4-fluoro-phenylamino)-ethylcarbamoyl]-ethyl}-benzamide], for which the inhibition constant (Ki) on Cathepsin S (setting [1]) is < 100 nM. Further, at Cathepsin K (setting [2]), the “Selectivity for Cat. S over Cat. K” value is on record as “++ (++, >100)”.

Turning to `O=C(Cc1ccc(C(F)(F)F)cc1)N[C@@H](CC1CCCCC1)C(=O)NCCNc1ccc(F)cc1` [Compound 325, 3-Cyclohexyl-N-[2-(4-fluoro-phenylamino)-ethyl]-2-(S)-[2-(4-trifluoromethyl-phenyl)-acetylamino]-propionamide], the inhibitory constant (Ki) at Cathepsin S (setting [1]) is < 100 nM. Moreover, the “Selectivity for Cat. S over Cat. K” value on Cathepsin K (setting [2]) is “++ (++, >100)”.

For the molecule `CS(=O)(=O)c1ccc(CC(=O)N[C@@H](CC2CCCCC2)C(=O)NCCNc2ccc(F)cc2)cc1` [Compound 326, 3-Cyclohexyl-N-[2-(4-fluoro-phenylamino)-ethyl]-2-(S)-[2-(4-methanesulfonyl-phenyl)-acetylamino]-propionamide], on Cathepsin S (setting [1]), the Ki is < 1000 nM. Moreover, the “Selectivity for Cat. S over Cat. K” value at Cathepsin K (setting [2]) is “++ (++, >100)”.

Consider `COc1ccc(NCCNC(=O)[C@H](Cc2ccc(Oc3ccccc3)cc2)NC(=O)c2cccc(C)c2)cc1` [Compound 327, (S)-N-[1-[2-(4-Methoxy-phenylamino)-ethylcarbamoyl]-2-(4-phenoxy-phenyl)-ethyl]-3-methyl-benzamide], for which the Ki on Cathepsin S (setting [1]) was < 1000 nM. In addition, on Cathepsin K (setting [2]), the “Selectivity for Cat. S over Cat. K” value is recorded as “++ (++, >100)”.

In the case of `COc1ccc(NCCNC(=O)[C@H](Cc2ccc(Oc3ccc(OC)cc3)cc2)NC(=O)c2cccc(C)c2)cc1` [Compound 328, (S)-N-{2-[4-(4-Methoxy-phenoxy)-phenyl]-1-[2-(4-methoxy-phenylamino)-ethylcarbamoyl]-ethyl}-3-methyl-benzamide], the Ki at Cathepsin S (setting [1]) is < 1000 nM. Also, the “Selectivity for Cat. S over Cat. K” value on Cathepsin K (setting [2]) is “++ (++, >100)”.

Turning to `COc1ccc(NCCNC(=O)[C@H](Cc2ccc(Oc3cccc(Cl)c3)cc2)NC(=O)c2cccc(C)c2)cc1` [Compound 329, (S)-N-{2-[4-(3-Chloro-phenoxy)-phenyl]-1-[2-(4-methoxy-phenylamino)-ethylcarbamoyl]-ethyl}-3-methyl-benzamide], at Cathepsin S (setting [1]), the Ki is < 1000 nM. For the same molecule, the “Selectivity for Cat. S over Cat. K” value on Cathepsin K (setting [2]) is “++ (++, >100)”.

For `COc1ccc(NCCNC(=O)[C@H](Cc2ccc(Oc3cc(C)cc(C)c3)cc2)NC(=O)c2cccc(C)c2)cc1` [Compound 330, (S)-N-{2-[4-(3,5-Dimethyl-phenoxy)-phenyl]-1-[2-(4-methoxy-phenylamino)-ethylcarbamoyl]-ethyl}-3-methyl-benzamide], the Ki on Cathepsin S (setting [1]) is < 1000 nM. For the same molecule, the “Selectivity for Cat. S over Cat. K” value on Cathepsin K (setting [2]) was “++ (++, >100)”.

As to `CC(C)C[C@H](NC(=O)OCc1ccccc1)C(=O)NCCNc1cccc2ccccc12` [reference compound], the values for the Ki on Cathepsin S (setting [3]) and at Cathepsin K (setting [5]) were < 1000 nM and < 100 nM, respectively. For the same molecule, the “Selectivity for Cat. S over Cat. K” value on Cathepsin K (setting [4]) was <10.

In the case of `COc1ccc(NCCNC(=O)[C@@H](CC(C)C)NC(=O)c2ccc(-c3ccccc3)cc2)cc1` [reference compound], the Ki at Cathepsin S (setting [3]) and on Cathepsin K (setting [5]) was < 100 nM throughout. For the same molecule, the “Selectivity for Cat. S over Cat. K” value on Cathepsin K (setting [4]) was <10.

The Ki is a measure of affinity in units of concentration, obtained from inhibition or displacement.
